Laboratory results reported in patent publication US20190225650A1, “PEPTIDOMIMETIC MACROCYCLES AND USE THEREOF IN REGULATING HIF1ALPHA” (AILERON THERAPEUTICS, INC., priority 2013, published 2019).
Bridge positions count the residues as written; N and C are the ends. Square brackets hold non-standard residues; d marks the D form. Peptide text beside a SMILES is read from it. R8 = C=CCCCCCC[C@@](C)(N)C(=O)O; S5 = C=CCCC[C@](C)(N)C(=O)O; Nle = CCCC[C@H](N)C(=O)O; Abu = CC[C@H](N)C(=O)O

How the values were obtained:
[1] = test system: HRE-bla ME-180 cells; test: Reporter gene assay (HRE-bla ME-180 HIF reporter, GeneBLAzer); type: cell-based, human; settings: for EC50: 24 hour normoxia
Method in brief: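 A FRET β-lactamase readout of HIF transcription was used. After compound treatment in 0.3% DMSO/media under normoxic conditions, 20 μl of 6× LiveBLAzer-FRET B/G (CCF4-AM) substrate was added. Plates sat 3 hr at room temperature in the dark and were read at 409 Ex/460Em and 409Ex/530Em on a Synergy 2. Inhibition was compared against DMSO vehicle controls, with chetomin as positive control.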

[2] = test system: HRE-bla ME-180 cells; test: Cell proliferation assay (viability, MTT, 1% FBS); type: cell-based, human
Description: The human cervical cell line HRE-Bla ME-180 was obtained from Invitrogen. 2×10^4 ME-180 cells were plated in 96-well plates (costar) in Opti-MEM plus 1% FBS (Invitrogen). After 4 hr, cells were pretreated with chetomin, peptide or 0.5% DMSO (final concentration in media) vehicle control for 16 hr under normoxia (21% O2); then incubation continued under normoxia or hypoxia (1% O2) using a hypoxia incubator (Thermo Forma model). Viable cell numbers were quantified using CellTiter 96 Non-Radioactive Cell Proliferation kit (Promega, G4100). The results are presented in the column “Viability 1% FBS AVG (MTT V3-24 hr Normoxia) (μM)” of Table 6.

SMILES	18 h Avg % max inhibition at top conc (HIF Rptr-24 hrs normoxia) (μM) [1]	EC50 [1]	Viability 1% FBS AVG (MTT V3-24 hr Normoxia) (μM) [2]
CC[C@@H]1NC(=O)[C@H](CC(=O)O)NC(=O)[C@H](Cc2ccc(O)cc2)NC(=O)[C@@](C)(NC(=O)[C@@H](NC(=O)[C@H](CC(C)C)NC(=O)[C@H](CCC(N)=O)NC(=O)[C@@H]2CCCN2C(=O)[C@H](CC(C)C)NC(=O)[C@H](CCC(=O)O)NC(=O)[C@H](CCCCN)NC(=O)[C@@H](NC(=O)[C@H](CCCNC(=N)N)NC(=O)[C@H](CC(=O)O)NC(=O)[C@H](CC(C)C)NC(=O)CNC(=O)[C@H](CCSC)NC(=O)[C@H](CCC(=O)O)NC(=O)[C@@H](NC(=O)[C@@H](NC(=O)[C@H](CC(C)C)NC(=O)[C@]2(C)CCCC=CCCC[C@](C)(NC(=O)[C@H](CCC(=O)O)NC(=O)[C@H](CC(=O)O)NC(=O)[C@@H](NC(=O)[C@H](Cc3ccccc3)NC(C)=O)[C@@H](C)CC)C(=O)N[C@@H](C(C)C)C(=O)N[C@@H](CC(C)C)C(=O)N[C@@H](CCSC)C(=O)N2)C(C)C)[C@@H](C)CC)[C@@H](C)CC)[C@@H](C)O)CCCC=CCCC[C@@](C)(C(=O)N[C@H](C(=O)N[C@@H](CC(N)=O)C(=O)N[C@@H](C)C(N)=O)C(C)C)NC1=O [SP-322] (Ac-FIDE[S5]VLM[S5]LVIEMGLDRIKELPQLT[S5]YD[Abu][S5]VNA-NH2; staple 5-9, 27-31)	+ (<10: +)	> 30 µM	++++ (≥30: ++++)
CCCC[C@H](NC(=O)[C@H](Cc1ccccc1)NC(=O)[C@@H](NC(=O)[C@H](C)NC(=O)[C@H](CCC(N)=O)NC(=O)[C@H](CC(=O)O)NC(=O)[C@@H](NC(=O)[C@H](Cc1ccccc1)NC(C)=O)[C@@H](C)CC)C(C)C)C(=O)N[C@@]1(C)CCCC=CCCC[C@@](C)(C(=O)N[C@@H](CCCC)C(=O)N[C@@H](C)C(=O)N[C@@H](CC(C)C)C(=O)N[C@@H](CC(C)C)C(N)=O)NC(=O)[C@H]([C@@H](C)CC)NC(=O)[C@H](C(C)C)NC(=O)[C@H](Cc2c[nH]cn2)NC1=O [SP-254] (Ac-FIDQAVF[Nle][S5]HVI[S5][Nle]ALL-NH2; staple 9-13)	+++ (≤25 but <50: +++)	≤ 5 µM	+ (<5: +)
CCCC[C@H](NC(=O)[C@H](CCC(=O)O)NC(=O)[C@@H](NC(=O)[C@@H](NC(=O)[C@H](CC(C)C)NC(=O)[C@]1(C)CCCC=CCCC[C@](C)(NC(=O)[C@H](CCC(=O)O)NC(=O)[C@H](CC(=O)O)NC(=O)[C@@H](NC(=O)[C@H](CC(N)=O)NC(=O)[C@@H](NC(=O)[C@H](CCC(N)=O)NC(=O)[C@]2(C)CCCC=CCCC[C@](C)(NC(=O)[C@H](CC(C)C)NC(=O)[C@H](CCC(=O)O)NC(=O)[C@H](CCC(=O)O)NC(=O)CNC(=O)[C@H](CCC(N)=O)NC(=O)[C@H](CC(C)C)NC(=O)[C@H](CC(C)C)NC(C)=O)C(=O)N[C@@H](CCCNC(=N)N)C(=O)N[C@@H](C)C(=O)N[C@@H](CC(C)C)C(=O)N2)C(C)C)[C@@H](C)CC)C(=O)N[C@@H](C(C)C)C(=O)N[C@@H](CC(C)C)C(=O)N[C@@H](CCCC)C(=O)N1)C(C)C)[C@@H](C)CC)C(=O)NCC(N)=O [SP-327] (Ac-LLQGEEL[S5]RAL[S5]QVNIDE[S5]VL[Nle][S5]LVIE[Nle]G-NH2; staple 8-12, 19-23)	+ (<10: +)	> 30 µM	++++ (≥30: ++++)
CC[C@H](C)[C@H](NC(=O)[C@H](CCCNC(=N)N)NC(=O)[C@H](CC(=O)O)NC(=O)[C@H](CC(C)C)NC(=O)[C@H](C)NC(=O)[C@H](CCSC)NC(=O)[C@]1(C)CCCC=CCCC[C@](C)(NC(=O)[C@H](CCSC)NC(=O)[C@H](Cc2ccccc2)NC(=O)[C@@H](NC(=O)[C@H](CCC(=O)O)NC(=O)[C@H](CCC(N)=O)NC(=O)[C@H](CC(=O)O)NC(=O)[C@@H](NC(=O)[C@H](Cc2ccccc2)NC(C)=O)[C@@H](C)CC)C(C)C)C(=O)N[C@@H](CC(C)C)C(=O)N[C@@H](C(C)C)C(=O)N[C@@H]([C@@H](C)CC)C(=O)N1)C(N)=O [SP-267] (Ac-FIDQEVFM[S5]LVI[S5]MALDRI-NH2; staple 9-13)	+++ (≤25 but <50: +++)	> 30 µM	++++ (≥30: ++++)
CCCC[C@H](NC(=O)[C@H](C)NC(=O)[C@@H](NC(=O)[C@@H](NC(=O)[C@H](CC(C)C)NC(=O)[C@]1(C)CCCC=CCCC[C@](C)(NC(=O)[C@H](CCC(=O)O)NC(=O)[C@H](CC(=O)O)NC(=O)[C@@H](NC(=O)[C@H](Cc2ccccc2)NC(C)=O)[C@@H](C)CC)C(=O)N[C@@H](C(C)C)C(=O)N[C@@H](CC(C)C)C(=O)N[C@@H](CCCC)C(=O)N1)C(C)C)[C@@H](C)CC)C(=O)N[C@@H](C)C(=O)N[C@@H](CC(C)C)C(=O)N[C@@H](CO)C(=O)N[C@@H](CO)C(=O)N[C@H](C(N)=O)[C@@H](C)CC [SP-129] (Ac-FIDE[S5]VL[Nle][S5]LVIA[Nle]ALSSI-NH2; staple 5-9)	++ (≤10 but <25: ++)	> 30 µM	++++ (≥30: ++++)
CC[C@H](C)[C@H](NC(=O)[C@H](CCCNC(=N)N)NC(=O)[C@H](CC(=O)O)NC(=O)[C@H](CC(C)C)NC(=O)[C@H](C)NC(=O)[C@H](CCSC)NC(=O)[C@H](CCC(=O)O)NC(=O)[C@]1(C)CCCC=CCCCCCC[C@@](C)(NC(=O)[C@H](CCC(=O)O)NC(=O)[C@H](CC(=O)O)NC(=O)[C@@H](NC(=O)[C@H](Cc2ccccc2)NC(C)=O)[C@@H](C)CC)C(=O)N[C@@H](C(C)C)C(=O)N[C@@H](CC(C)C)C(=O)N[C@@H](CCSC)C(=O)N[C@@H](CO)C(=O)N[C@@H](CC(C)C)C(=O)N[C@@H](C(C)C)C(=O)N1)C(N)=O [SP-175] (Ac-FIDE[R8]VLMSLV[S5]EMALDRI-NH2; staple 5-12)	++ (≤10 but <25: ++)	> 30 µM	++++ (≥30: ++++)
CCCC[C@H](NC(=O)[C@H](CCC(=O)O)NC(=O)[C@@H](NC(=O)[C@@H](NC(=O)[C@H](CC(C)C)NC(=O)[C@]1(C)CCCC=CCCC[C@](C)(NC(=O)[C@H](CCC(=O)O)NC(=O)[C@H](CC(=O)O)NC(=O)[C@@H](NC(=O)[C@H](Cc2ccccc2)NC(C)=O)[C@@H](C)CC)C(=O)N[C@@H](CO)C(=O)N[C@@H](CC(C)C)C(=O)N[C@@H](CCCC)C(=O)N1)C(C)C)[C@@H](C)CC)C(=O)N[C@@H](C)C(=O)N[C@@H](CC(C)C)C(N)=O [SP-140] (Ac-FIDE[S5]SL[Nle][S5]LVIE[Nle]AL-NH2; staple 5-9)	+++ (≤25 but <50: +++)	> 30 µM	+++ (≤15 but <30: +++)
CC[C@H](C)[C@H](NC(=O)[C@H](CC(N)=O)NC(=O)[C@@H](NC(=O)[C@H](CCC(N)=O)NC(=O)[C@H](CC(=O)O)NC(=O)[C@H](CC(C)C)NC(=O)[C@H](C)NC(=O)[C@H](CCCNC(=N)N)NC(=O)[C@H](CC(C)C)NC(=O)[C@H](CC(C)C)NC(=O)[C@H](CCC(=O)O)NC(=O)[C@H](CCC(=O)O)NC(=O)CNC(=O)[C@H](CCC(N)=O)NC(=O)[C@H](CC(C)C)NC(=O)[C@H](CC(C)C)NC(C)=O)C(C)C)C(=O)N[C@@H](CC(=O)O)C(=O)N[C@@H](CCC(=O)O)C(=O)N[C@@H](CCC(=O)O)C(=O)N[C@H](C(=O)N[C@@H](CC(C)C)C(=O)N[C@@H](CCSC)C(=O)N[C@@]1(C)CCCC=CCCC[C@@](C)(C(=O)N[C@@H](CCSC)C(N)=O)NC(=O)[C@H]([C@@H](C)CC)NC(=O)[C@H](C(C)C)NC(=O)[C@H](CC(C)C)NC1=O)C(C)C [SP-319] (Ac-LLQGEELLRALDQVNIDEEVLM[S5]LVI[S5]M-NH2; staple 23-27)	+ (<10: +)	> 30 µM	++++ (≥30: ++++)
CC[C@H](C)[C@H](NC(=O)[C@H](Cc1ccccc1)NC(C)=O)C(=O)N[C@@H](CC(=O)O)C(=O)N[C@@H](CCC(=O)O)C(=O)N[C@H](C(=O)N[C@H](C(=O)N[C@@H](CC(C)C)C(=O)N[C@@H](CCSC)C(=O)N[C@@]1(C)CCCC=CCCC[C@@](C)(C(=O)N[C@@H](CCSC)C(=O)N[C@@H](C)C(=O)N[C@@H](CC(C)C)C(N)=O)NC(=O)[C@H]([C@@H](C)CC)NC(=O)[C@H](C(C)C)NC(=O)[C@H](CC(C)C)NC1=O)C(C)C)[C@@H](C)O [SP-239] (Ac-FIDETVLM[S5]LVI[S5]MAL-NH2; staple 9-13)	++ (≤10 but <25: ++)	> 30 µM	++++ (≥30: ++++)
CCCC[C@H](NC(=O)[C@H](Cc1ccccc1)NC(=O)[C@@H](NC(=O)[C@H](C)NC(=O)[C@H](CCC(N)=O)NC(=O)[C@H](CC(=O)O)NC(=O)[C@@H](NC(=O)[C@H](Cc1ccccc1)NC(C)=O)[C@@H](C)CC)C(C)C)C(=O)N[C@@]1(C)CCCC=CCCC[C@@](C)(C(=O)N[C@@H](CCC(N)=O)C(=O)N[C@@H](C)C(=O)N[C@@H](CC(C)C)C(=O)N[C@@H](CC(C)C)C(N)=O)NC(=O)[C@H]([C@@H](C)CC)NC(=O)[C@H](C(C)C)NC(=O)[C@H](CC(C)C)NC1=O [SP-255] (Ac-FIDQAVF[Nle][S5]LVI[S5]QALL-NH2; staple 9-13)	++++ (≥50: ++++)	≤ 5 µM	+ (<5: +)
